Test results reported in PubChem BioAssay AID330 (DTP/NCI, 2004).
Values joined by “and” are separate entries in the source; they are usually repeats but may differ in a detail not shown here. Equal entries are not always repeated. Toxic doses and inconclusive results are not listed.

System: P388 leukemia ip, CD2F1 mice, survival T/C
Experiment: NCI In Vivo Anticancer Drug Screen. Data for tumor model P388 Leukemia (intraperitoneal) in CD2F1 (CDF1) mice
Conditions: endpoint: median survival time, higher = longer survival
Procedure, shortened: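 Mice carrying the transplanted tumor received test compound or vehicle. Survival was recorded in each group, and the value is the treated-group measurement divided by that of the vehicle-treated control group.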

[1] = dose: 25.0 mg/kg/injection, schedule: Q01DX009 (ip), vehicle: Klucel (hydroxypropylcellulose) (HPC)
[2] = dose: 50.0 mg/kg/injection, schedule: Q01DX009 (ip), vehicle: Klucel (hydroxypropylcellulose) (HPC)
[3] = dose: 100.0 mg/kg/injection, schedule: Q01DX009 (ip), vehicle: Klucel (hydroxypropylcellulose) (HPC)
[4] = dose: 50.0 mg/kg/injection, schedule: Q01DX005 (ip), vehicle: saline with Tween-80
[5] = dose: 100.0 mg/kg/injection, schedule: Q01DX005 (ip), vehicle: saline with Tween-80
[6] = dose: 200.0 mg/kg/injection, schedule: Q01DX005 (ip), vehicle: saline with Tween-80
[7] = dose: 60.0 mg/kg/injection, schedule: Q01DX005 (ip), vehicle: saline with Tween-80
[8] = dose: 120.0 mg/kg/injection, schedule: Q01DX005 (ip), vehicle: saline with Tween-80
[9] = dose: 240.0 mg/kg/injection, schedule: Q01DX005 (ip), vehicle: saline with Tween-80
[10] = dose: 100.0 mg/kg/injection, schedule: Q01DX009 (ip), vehicle: saline with Tween-80
[11] = dose: 25.0 mg/kg/injection, schedule: Q01DX005 (ip), vehicle: saline with Tween-80
[12] = dose: 50.0 mg/kg/injection, schedule: Q01DX009 (ip), vehicle: saline with Tween-80
[13] = dose: 50.0 mg/kg/injection, schedule: Q01DX005 (ip), vehicle: Klucel (hydroxypropylcellulose) (HPC)
[14] = dose: 100.0 mg/kg/injection, schedule: Q01DX005 (ip), vehicle: Klucel (hydroxypropylcellulose) (HPC)
[15] = dose: 200.0 mg/kg/injection, schedule: Q01DX005 (ip), vehicle: Klucel (hydroxypropylcellulose) (HPC)
[16] = dose: 100.0 mg/kg/injection, schedule: Q04DX003 (ip), vehicle: Klucel (hydroxypropylcellulose) (HPC)
[17] = dose: 200.0 mg/kg/injection, schedule: Q04DX003 (ip), vehicle: Klucel (hydroxypropylcellulose) (HPC)
[18] = dose: 25.0 mg/kg/injection, schedule: Q01DX009 (ip), vehicle: saline
[19] = dose: 50.0 mg/kg/injection, schedule: Q01DX009 (ip), vehicle: saline
[20] = dose: 100.0 mg/kg/injection, schedule: Q01DX009 (ip), vehicle: saline
[21] = dose: 200.0 mg/kg/injection, schedule: Q01DX009 (ip), vehicle: saline

In the case of `CCn1c(=O)c2c(nc(Cl)n2C2OC(COC(C)=O)C(OC(C)=O)C(OC(C)=O)C2OC(C)=O)n(CC)c1=O` (stereo not drawn), the T/C [1] is reported as 100 % of control, the T/C [2] is reported as 99 % of control and the T/C [3] is reported as 99 % of control.
`CCCCCCCCCCCCCCCCCCOCC(CO)OC` (stereo not drawn) was tested, and the T/C [4] was 101 % of control and 115 % of control, the T/C [5] was 115 % of control and 123 % of control and the T/C [6] was 123 % of control. For the same compound, the T/C (dose: 400.0 mg/kg/injection, schedule: Q01DX005 (ip), vehicle: saline with Tween-80) was 97 % of control.
`Cc1ccc(C)n1N1CCOCC1` was tested, and the T/C [7] was 108 % of control, the T/C [8] was 101 % of control and the T/C [9] was 100 % of control.
For `CCOC(=O)c1[nH]cnc1/N=N/N(C)C`, the T/C [10] was 90 % of control, the T/C (dose: 150.0 mg/kg/injection, schedule: Q04DX003 (ip), vehicle: saline with Tween-80) was 120 % of control and the T/C (dose: 200.0 mg/kg/injection, schedule: Q04DX003 (ip), vehicle: saline with Tween-80) was 150 % of control.
`N#CC=Cc1ccc([N+](=O)[O-])s1` (mixture of isomers) was tested, and the T/C (dose: 12.5 mg/kg/injection, schedule: Q01DX005 (ip), vehicle: saline with Tween-80) was 109 % of control and the T/C [11] was 115 % of control.
With `COc1ccc(C(=NO)c2ccc(OC)cc2)cc1` the T/C (dose: 100.0 mg/kg/injection, schedule: Q04DX003 (ip), vehicle: saline) was 100 % of control, the T/C (dose: 200.0 mg/kg/injection, schedule: Q04DX003 (ip), vehicle: saline) was 100 % of control and the T/C (dose: 400.0 mg/kg/injection, schedule: Q04DX003 (ip), vehicle: saline) was 104 % of control.
For `COc1ccc(C(=O)CCS(=O)O)cc1`, the T/C (dose: 100.0 mg/kg/injection, schedule: Q04DX002 (ip), vehicle: saline) was 100 % of control, the T/C (dose: 200.0 mg/kg/injection, schedule: Q04DX002 (ip), vehicle: saline) was 100 % of control and the T/C (dose: 400.0 mg/kg/injection, schedule: Q04DX002 (ip), vehicle: saline) was 99 % of control.
For `CC(C)(C)C(=O)Oc1cc2c(cc1OC(=O)C(C)(C)C)C(c1ccccc1)CNCC2` (stereo not drawn), the T/C (dose: 25.0 mg/kg/injection, schedule: Q01DX009 (ip), vehicle: saline with Tween-80) was 96 % of control and the T/C [12] was 98 % of control.
`CCCCC(NC(=O)OCc1ccccc1)C(=O)NC(CC(C)C)C(=O)O` (stereo not drawn) was tested, and the T/C [13] was 100 % of control, the T/C [14] was 100 % of control and the T/C [15] was 92 % of control.
With `CC1OC(O[C@H]2C[C@](O)(C(=O)CO)Cc3c(O)c4c(c(O)c32)C(=O)c2c(OCc3ccccc3)cccc2C4=O)CC(N)C1O` (stereo partly drawn) the T/C (dose: 3.13 mg/kg/injection, schedule: Q04DX003 (ip), vehicle: water) was 118 % of control, the T/C (dose: 6.25 mg/kg/injection, schedule: Q04DX003 (ip), vehicle: distilled water + Tween-80) was 110 % of control and the T/C (dose: 6.25 mg/kg/injection, schedule: Q04DX003 (ip), vehicle: water) was 118 % of control. The T/C (dose: 12.5 mg/kg/injection, schedule: Q04DX003 (ip), vehicle: water) was 123 % of control and the T/C (dose: 25.0 mg/kg/injection, schedule: Q04DX003 (ip), vehicle: water) was 123 % of control.
For `CC(C)C1CCC2(C)C(CCC3C4(C)CCCC32OC4=O)C1` (stereo not drawn), the T/C [13] was 104 % of control, the T/C [14] was 99 % of control and the T/C [15] was 101 % of control.
For `C=C1CCC(OC(C)=O)C2(C)C(OC(C)=O)CC3OC3(C)C2C(OC(C)=O)C2C(C)C(=O)OC2C1Cl` (stereo not drawn), the T/C [1] was 99 % of control, the T/C [2] was 97 % of control and the T/C [3] was 96 % of control. The T/C (dose: 200.0 mg/kg/injection, schedule: Q01DX009 (ip), vehicle: Klucel (hydroxypropylcellulose) (HPC)) was 93 % of control.
In the case of `CCOC(=O)/C(Nc1ccc(C(=O)OCC)cc1)=C1\COc2nc(N)[nH]c(=O)c2N1`, the T/C [4] is reported as 93 % of control, the T/C [5] is reported as 91 % of control and the T/C [6] is reported as 107 % of control.
In the case of `O=c1c2ccccc2[nH]c2c(O)c3c(=O)c4ccccc4[nH]c3cc12`, the T/C [16] is reported as 102 % of control, the T/C [17] is reported as 92 % of control and the T/C (dose: 400.0 mg/kg/injection, schedule: Q04DX003 (ip), vehicle: Klucel (hydroxypropylcellulose) (HPC)) is reported as 102 % of control.
In the case of `O=C1NC(c2cccc3c2OCO3)N=C2Oc3ccccc3C=C12` (stereo not drawn), the T/C [18] is reported as 107 % of control and 87 % of control, the T/C [12] is reported as 118 % of control and the T/C [19] is reported as 100 % of control and 107 % of control. For the same compound, the T/C [10] was 120 % of control, the T/C [20] was 106 % of control and 117 % of control and the T/C [21] was 106 % of control and 117 % of control.
In the case of `CC(=O)OCCOCn1cc(C)[n+]([O-])nc1=O`, the T/C [7] is reported as 100 % of control, the T/C [8] is reported as 94 % of control and the T/C [9] is reported as 95 % of control.
For `O=C(O)CCCCOc1ccc(N(CCCl)CCCl)cc1`, the T/C (dose: 100.0 mg/kg/injection, schedule: Q01DX001 (ip), vehicle: Klucel (hydroxypropylcellulose) (HPC)) was 123 % of control.
In the case of `COC(=O)CC1(C(=O)OC)C2=C(c3ccccc3CC2)N2CCCC21` (stereo not drawn), the T/C (dose: 11.25 mg/kg/injection, schedule: Q01DX009 (ip), vehicle: Klucel (hydroxypropylcellulose) (HPC)) is reported as 110 % of control, the T/C (dose: 22.5 mg/kg/injection, schedule: Q01DX009 (ip), vehicle: Klucel (hydroxypropylcellulose) (HPC)) is reported as 110 % of control and the T/C (dose: 45.0 mg/kg/injection, schedule: Q01DX009 (ip), vehicle: Klucel (hydroxypropylcellulose) (HPC)) is reported as 102 % of control. For the same compound, the T/C (dose: 90.0 mg/kg/injection, schedule: Q01DX009 (ip), vehicle: Klucel (hydroxypropylcellulose) (HPC)) was 112 % of control.
In the case of `O=C1COc2ccc(F)cc2N1`, the T/C (dose: 60.0 mg/kg/injection, schedule: Q01DX005 (ip), vehicle: Klucel (hydroxypropylcellulose) (HPC)) is reported as 102 % of control and 103 % of control, the T/C (dose: 120.0 mg/kg/injection, schedule: Q01DX005 (ip), vehicle: Klucel (hydroxypropylcellulose) (HPC)) is reported as 101 % of control and 96 % of control and the T/C (dose: 240.0 mg/kg/injection, schedule: Q01DX005 (ip), vehicle: Klucel (hydroxypropylcellulose) (HPC)) is reported as 101 % of control and 102 % of control.
`C=CCOc1cc2c(cc1C(C)c1ccc(OCC)c(C)c1)OCO2` (stereo not drawn) was tested, and the T/C [4] was 106 % of control, the T/C [5] was 103 % of control and the T/C [6] was 106 % of control.
In the case of `CC(=O)Nc1cccc(N=Cc2ccc[nH]2)c1`, the T/C [16] is reported as 99 % of control and the T/C [17] is reported as 100 % of control.
`Nc1ccc([N+](=O)[O-])cc1Nc1c2ccccc2nc2ccccc12` was tested, and the T/C [2] was 108 % of control and the T/C [3] was 107 % of control.
`OCC1=C(CO)CC=CC1` was tested, and the T/C [7] was 96 % of control, the T/C [8] was 96 % of control and the T/C [9] was 95 % of control.
`CCCCN1COCO[C@H]2CCC[C@@H]21` was tested, and the T/C (dose: 100.0 mg/kg/injection, schedule: Q04DX002 (ip), vehicle: Klucel (hydroxypropylcellulose) (HPC)) was 118 % of control and the T/C (dose: 200.0 mg/kg/injection, schedule: Q04DX002 (ip), vehicle: Klucel (hydroxypropylcellulose) (HPC)) was 122 % of control.
`O=c1[nH]c2cc([N+](=O)[O-])ccc2nc1/C=C(\O)c1ccc(F)cc1` was tested, and the T/C (dose: 60.0 mg/kg/injection, schedule: Q01DX005 (ip), vehicle: Klucel + Tween-80) was 102 % of control and the T/C (dose: 120.0 mg/kg/injection, schedule: Q01DX005 (ip), vehicle: Klucel + Tween-80) was 86 % of control.
For `CCCCCC(=O)c1c(-c2ccc(C)cc2)cc(O)c(CCCC)c1-c1ccc(C)cc1`, the T/C [11] was 108 % of control, the T/C [4] was 97 % of control and the T/C [5] was 104 % of control.
With `COc1ccc(OC)c(CC(CC(=O)O)C(C)=O)c1` (stereo not drawn) the T/C (dose: 25.0 mg/kg/injection, schedule: Q01DX009 (ip), vehicle: other) was 97 % of control, the T/C (dose: 50.0 mg/kg/injection, schedule: Q01DX009 (ip), vehicle: other) was 100 % of control and the T/C (dose: 100.0 mg/kg/injection, schedule: Q01DX009 (ip), vehicle: other) was 100 % of control. The T/C (dose: 200.0 mg/kg/injection, schedule: Q01DX009 (ip), vehicle: other) was 101 % of control and the T/C (dose: 400.0 mg/kg/injection, schedule: Q01DX009 (ip), vehicle: other) was 108 % of control.
In the case of `Nc1ccc2c(c1)C1C(C3C2C2(Cl)C(Cl)=C(Cl)C3(Cl)C2(Cl)Cl)C2(Cl)C(Cl)=C(Cl)C1(Cl)C2(Cl)Cl` (stereo not drawn), the T/C (dose: 12.5 mg/kg/injection, schedule: Q01DX009 (ip), vehicle: saline) is reported as 97 % of control, the T/C [18] is reported as 109 % of control and the T/C [19] is reported as 100 % of control and 95 % of control. The T/C [20] was 100 % of control and the T/C [21] was 98 % of control.
